In a melting point compilation (Tetko et al.; mined from patent text by program, amines drawn as free bases though some values may be those of a salt):

Compound | melting point [°C]
Cc1ccc(-c2nc(C)cc(Cl)n2)cc1 | 103 to 104
Cc1nn(CC(F)(F)COC(=O)c2cccnc2)c(-c2ccc(F)cc2)c1-c1ccc2c(c1)NC(=O)CO2 | 169 to 172
Cn1cc(C(=O)NCc2ccc(Cl)cc2)c(=O)c2cc(CO)cc(I)c21 | 242 to 244
Cc1nc(N)nc(N)c1C#CC(C)(C)c1ccc(C(F)(F)F)cc1 | 153 to 157
COC(=O)C1=C(C)NC(C)=C(C(=O)O)C1c1ccccc1Cl (configuration not stated) | 210
CNN(NC)C(=O)Nc1cccc2c1C(=O)c1c-2n[nH]c1-c1ccco1 | 202
CCOC(=O)C1=C(NC(=O)Nc2ccc([N+](=O)[O-])c(C(=O)OCC)c2)CCC1 | 152 to 155
Cc1cc(CCl)nc(Nc2ccccc2)n1 | 100 to 101
O=[N+]([O-])c1cc(NC(=S)N2CCCCN2)c(F)cc1Cl | 118 to 120
CCc1ccc2nc(C)c(S(=O)(=O)NC(=O)Nc3nc(OC)cc(OC)n3)n2n1 | 172 to 174
Cn1c2ccccc2c2cccc(N)c21 | 90 to 92
O=C(Nc1ccc(-c2ncc(-c3ccc(NC(=O)C4CCCCCC4)cc3)[nH]2)cc1)c1ccc(F)cc1 | 314 to 316
COc1ccc(CCN2CCC(=C3c4ccn(C)c4CCn4ncnc43)CC2)cc1 | 139
O=c1c2cc(SC(F)(F)F)ccc2ccn2cccc12 | 155 to 159
COC(=O)CC[C@H]1CC[C@@H](n2c(C)nn(-c3ccc(C#N)cc3)c2=O)CC1 | 92 to 96
O=C1N(C/C=C/C=C/c2ccccc2Cl)CCN1c1cccnc1 | 130 to 133
COCC1c2ccccc2CCN1c1nc(Nc2ccc(F)cc2)nc(C)c1C (configuration not stated) | 193 to 195
COc1cc2cnnc(N3CCC(CCN(C)C(=O)N(C)C)CC3)c2cc1OC | 140 to 141
NC(=O)Cn1c(-c2ccc(Br)o2)nc2cccnc21 | > 250
CCCc1nn(C)c2c(=O)[nH]c(Cc3ccc(O)cc3)nc12 | 260
O=C1c2ccc(OCCn3ccnc3)cc2CCC1Cc1ccc(Br)cc1 (configuration not stated) | 129 to 130
CC(C)(C)c1ccc(N)nn1 | 125 to 132

Compound | melting point [°C]
Cc1[nH]c2c(ccc3sc4ccccc4c32)c1C=O | 192 to 194
Cc1cc(OC(=O)c2ccccc2)c2ccccc2c1OCc1ccccc1 | 179 to 180
O=C(/C=C/c1cccc(S(=O)(=O)N2CCN(c3cccc(C(F)(F)F)c3)CC2)c1)NO | 173
CC(C)CCCC(C)NC(=O)CCC(=NNC(N)=S)c1ccccc1 (configuration not stated) | 58 to 65
CCCCCc1ccc(NS(=O)(=O)c2ccc(N3CCNC3=O)cc2)cc1 | 207 to 209
CCCCCS(=O)(=O)NC(=O)c1ccc2sc(C)c(Cc3ccc(Cl)cc3Cl)c2c1 | 158 to 159
CCOC(=O)CCc1cn(Cc2ccc(OC)c(OCc3nc(-c4ccccc4)oc3C)c2)nc1OCC | 109 to 110
CN1CCC2(CC1)CN(c1ccccc1[N+](=O)[O-])c1cc(Cl)ccc12 | 130 to 131
N#Cc1c(-c2ccccc2)c(-c2ccccc2)nn(CCO)c1=O | 197 to 198
CCCCOC(=O)NCCc1nc(-c2ccc(-c3ccccc3)cc2)c[nH]1 | 137
COc1ccc(S(=O)(=O)Nc2ccccc2N)cc1 | 141 to 142
COC(=O)NCc1cccc(-c2ccnc3c(C(=O)c4ccco4)cnn23)c1 | 152 to 154
CCOC(=O)CC1c2cc(C(F)(F)F)ccc2C(=O)N1CC(F)(F)F (racemic) | 54.5 to 55.5
O=c1[nH]c2ccccc2n1CCCCN1CCC(O)(c2ccc(Cl)cc2)CC1 | 161
COCCCNc1nc(N)c(Cl)c(Cl)n1 | 114
CN1C(=O)CCC2(C)c3ccc(Sc4ccccc4Cl)cc3CCC12 (single isomer, unassigned; (+)) | 123 to 125
O=c1[nH]c2ccccc2n1CCCN1CCC(c2noc3cc(F)ccc23)CC1 | 175 to 177
COc1ccc2nc(-c3ccc(C)c(C)c3)n(-c3ccccc3)c2c1 | 251
c1ccc(-c2nnc3ccc(N4CCOCC4)nn23)cc1 | 266 to 268
O=C(O)C(O)c1cccs1 (configuration not stated) | 75
O=C1NC(=O)C2(C=Cc3cscc32)N1 (configuration not stated) | 241 to 243
Cc1sc(-c2ccccc2)nc1COc1cc(COc2ncccc2CC(=O)O)on1 | 109 to 110

Compound | melting point [°C]
CCOC(=O)OC1=C(c2c(C)cc(C)cc2C)C(=O)SC12CCN(OC)CC2 | 87 to 89
O=C1CCC(CN2C(=O)C3(COc4cc5c(cc43)OCO5)c3ccccc32)N1 (configuration not stated) | 121 to 130
O=C1CCN2CC3c4ccccc4CCc4cccc(c43)C2C1 (configuration not stated) | 163 to 165
O=C(Nc1ccccc1S(=O)(=O)C1CCCC1)N[C@@H](Cc1ccc(NC(=O)c2c(Cl)cncc2Cl)cc1)C(=O)O | 233
COc1cc(NC(=O)OCC2c3ccccc3-c3ccccc32)ccc1C=O | 187 to 188
Cc1cc(C(C)(C)C)c(O)cc1[N+](=O)[O-] | 96 to 98
COc1cc(OC)cc(S(=O)(=O)n2c(CCCC(=O)O)cc3nc(Cl)ccc32)c1 | 136 to 138
C[C@@H](CO)CCC[C@@H](C)[C@H]1C(=O)C[C@H]2[C@@H]3CC=C4C[C@@H](O)CC[C@]4(C)[C@H]3CC[C@]12C | 167 to 169
O=C(Nc1ccccc1)C1=C(C(F)(F)F)S(=O)(=O)CCS1(=O)=O | 105 to 108
Cn1c(C(F)(F)F)cc(=O)n(-c2cc(OCC=C(Cl)Cl)c(Cl)cc2F)c1=O | 126 to 127
CC(C)C1(C)N=C(c2cc3c(nc2C(=O)O)COC3)NC1=O (configuration not stated) | 115 to 118
Cc1cc2cc(C3CCNCC3)oc2cc1C | 77 to 78
Cn1ccnc1NC(=S)Nc1ccccc1 | 170 to 172
CCOC(=O)Nc1cc(COC(=O)Nc2ccc(N(CCCl)CCCl)cc2)cc(Nc2c3ccccc3nc3ccccc23)c1 | 178 to 182
N#CCc1cccc2c1CCN=C2c1ccc([N+](=O)[O-])cc1 | 138 to 139
CCCCCCCCCCc1ccc2cc(OC)ccc2c1 | 48.6 to 49.3
Cc1cc(-c2cnn3c(C(F)(F)F)cc(-c4ccc(C)c(C(F)(F)F)c4)nc23)cc(C)n1 | 258
Brc1ccc(Br)c2nsnc12 | 181 to 183
CCC(=O)CC(=O)C1CCC2C3CCC4CC(O)CCC4(C)C3C(=O)CC12C (configuration not stated) | 128 to 130
Cc1ccc(COC(=O)N2CCC[C@H]2C(=O)N[C@H](CO)C(C)C)cc1 | 122 to 124

The next lines start with the values.

melting point [°C] | Compound
215 to 216 | COC(=O)c1cccc2nc(OC)n(Cc3ccc(-c4ccccc4-c4nc(=O)o[nH]4)cc3)c12
149 to 151 | COc1c(C)c(N2CCN(c3ccc4c(c3)OC(F)(F)O4)CC2)c(C)c2c1OC(C)(C)C2
162 to 163 | Cc1[nH]nc(NC2CCCCC2)c1C(=O)O
206 to 207 | CCN(c1cccc2cc(C3=NCCS3)[nH]c12)S(=O)(=O)c1cccs1
103 to 112 | COc1cc(C2CCN(C(=O)C3CCN3)CC2)ccc1Nc1ncc2ccc(-c3ccccc3OC)n2n1 (configuration not stated)
95 to 105 | CCOCCCC1(O)c2ccccc2C=Cc2ccc(I)cc21 (configuration not stated)
219 to 221 | COc1cc(NC(=O)c2ccc(-c3ccncc3)cc2)cc(N2CCN(C)CC2)c1OC
47 to 48.5 | O=C(O)CCCCCCC1=CC(O)CC1=O (configuration not stated)
71 | COC(=O)[C@H](Cc1c[nH]c2ccccc12)N(CCN(CC(=O)OC(C)(C)C)CC(=O)OC(C)(C)C)CCN(CC(=O)OC(C)(C)C)CC(=O)OC(C)(C)C
110 to 111 | COC(=O)C1COc2c(C(=O)c3ccccc3)cc(C)cc21 (configuration not stated)
48 to 49 | Cc1ncnc(C)c1C(=O)N1CC2CN(CCC(NC(=O)C3CCCC3)c3ccccc3)CC2C1 (configuration not stated)
130 to 132 | CCCCC(=O)c1c(-c2ccc3c(Br)c(OCC(=O)O)ccc3c2)oc2ccc(Cl)cc12
56 to 59 | CN(Cc1ccc2c(Br)c(OCc3nnn[nH]3)ccc2c1)C(=O)c1oc2ccccc2c1CCc1ccccc1
149 to 153 | CC(c1cc2cc(F)ccc2s1)N(O)C(N)=O (configuration not stated)
205 to 209 | CCCCOCCOc1ccc(-c2cc3c4c(c2)OCCN4CCCC(C(=O)O)=C3)cc1
95 to 100 | CC(C)(C)NC(=O)[C@@H]1C[C@H](F)CN1C(=O)[C@@H](O)[C@H](Cc1ccccc1)NC(=O)[C@H](CC(N)=O)NC(=O)OCc1ccccc1
110 to 111 | COc1cccc(OC)c1C#CC(F)(F)F

melting point [°C] | Compound
219 to 220 | NC(=O)/C=C/c1ccc(C(c2cc(F)ccc2F)S(=O)(=O)c2ccc(Cl)cc2)nc1 (configuration not stated)
130 | CC(C)(C)OC(=O)N1CCCC(c2ncc(-c3cnc(-c4ccccc4)nc3)[nH]2)C1 (configuration not stated)
190 to 195 | N#Cc1ccc2[nH]c(-c3ccc(Cl)c(Cl)c3)c(CCCC(=O)O)c2c1
158 to 159 | O=C(O)COc1ccc(SCc2ccc(-c3ccc(C(F)(F)F)cc3)cc2)c2c1CCC2
38 to 40 | CC#CCOCCCCCCCCCCCCOC(=O)C1CC1
143 to 145 | C=CC(C)c1cc(C)c2c(c1O)C(N(C)C(C)=O)C1CCCCC21 (configuration not stated)
178 | Nc1nc2ccc(OCc3c(F)cccc3F)cc2s1
156 to 158 | COC(=O)NC(=S)Nc1ccccc1NC(=O)CCl
91 to 93 | O=C1CC(ON(Cc2ccccc2)Cc2ccccc2)C(=O)N1c1ccccc1 (configuration not stated)
205 | CC(=O)Nc1ccc2c3c(cccc13)S(=O)(=O)N2CCCCl
138 to 139 | COC(=O)c1ccc([N+](=O)[O-])c(OCC(N)=O)c1
167 to 171 | COc1cccc2cc(C(=O)c3ccc(Cl)c(S(N)(=O)=O)c3)oc12
202 | O=C1CN(C(=O)c2ccc(Cl)cc2)N(Cc2ccc(Cl)cc2)C(=O)N1
178 to 180 | Cc1oc(-c2ccc(F)cc2)nc1COc1cccc2cc(NS(=O)(=O)C(F)(F)F)ccc12
141 to 142 | N#Cc1cnn2c(-c3cccc(C(F)(F)F)c3)ccnc12
> 260 | O=C1CCC(N2C(=O)c3cccc(CNC(=O)Nc4ccccn4)c3C2=O)C(=O)N1 (configuration not stated)
